Source: patent publication US20090082400A1, “SOLUBLE PYRONE ANALOGS METHODS AND COMPOSITIONS” (priority 2007, published 2009)
Values joined by “and” are separate entries in the source; they are usually repeats but may differ in a detail not shown here. Equal entries are not always repeated. “Also recorded” adds a separate entry of the source.

What was measured:
[1] = Pharmacokinetic parameters of i.v. tacrolimus in the presence of Q-Captisol in male Lewis rats; format: in vivo; settings: rat, whole blood, iv, tacrolimus 1 mg/kg i.v.; for AUC / Cmax / Vd / clearance / half-life: male, Lewis, 1 mg/kg
Description: Male Lewis rats (Charles River Laboratories; 8-9 weeks old; mean weights 282-285 gm) are randomly assigned to treatment groups by a computerized body weight stratification procedure. Quercetin-Sulfobutylether-7-β-cyclodextrin (Q-Captisol) is prepared as a dosing solution using Captisol (B-cyclodextrin-sulfobutyl ether sodium salt; CyDex Inc.) along with 1 molar equivalent of sodium hydroxide. Q-Captisol is administered intraperitoneally (i.p.) at doses of 0, 25, 150, or 300 mg/kg (N=9 rats/dose). Tacrolimus (1 mg/kg i.v.) is dosed at 0.2 ml/kg directly from Prograf 5 mg/ml clinical dosing solutions. […] Whole blood is collected in EDTA tubes from the retro-orbital sinus under 60:40 CO2:O2 anesthesia at 9 time periods using N=3 animals per time period: 5, 15, and 30 min; 1, 2, 3, 6, 8, and 24 hr after administration of tacrolimus. To avoid excessive blood loss from individual animals, 3 blood samples per rat are collected at specified time intervals, so the final samples for analysis contained N=3 blood samples per time period. Whole blood samples are froze on dry ice and stored frozen at −80° C. prior to analysis.
Thawed whole blood (200 μl) is transferred to a separate glass tube with 100 μl of ascomycin (Internal Standard: 100 ng/ml in 10% methanol) and 20 μl of 10% methanol. Samples are treated with 400 μl of 0.1 M zinc sulfate and then 100 μl of acetonitrile to precipitate proteins. Samples are vortexed, then centrifuged at 4000 rpm for 5 min. 500 μl of supernatant is transferred to a clean glass tube containing 1000 μl of water and vortexed thoroughly. Mixtures are loaded onto a 100 mg C18 cartridge (SPE column) preconditioned with 1 ml of methanol, followed by 1 ml of water. The cartridge is washed 2× with 1 ml water, followed by 100 μl methanol. Tacrolimus and Internal Standard are eluted with 500 μl of methanol into an HPLC vial containing 1000 μl of 10 mM ammonium acetate. Samples are vortexed, then centrifuged at 4000 rpm for 10 min. A 10 μl aliquot of the clarified supernatant is injected directly onto LC/MS/MS for analysis. Calibration standards are prepared in blank rat whole blood at 1, 2, 5, 5, 10, 25, 50, 62.5, and 75 ng/ml and processed as described for the samples from rats dosed with tacrolimus.
The tacrolimus concentrations in plasma are determined using validated assay methods via an LC/MS/MS analytical technique. Major pharmacokinetic parameters, including area under the concentration versus time curve from time zero to the time of last measurable concentration (AUCt), area under the concentration versus time curve from time zero to infinite time (AUCinf), maximum observed concentration (Cmax), time to reach maximum observed blood or plasma concentration (Tmax), apparent terminal elimination rate constant (Kcl), clearance (CL), and half-life (T1/2), are determined from the plasma concentration data. […] These changes are believed to be caused by drug re-distribution from non-targeted organs to systemic circulation.

[2] = Pharmacokinetic parameters of oral tacrolimus in the presence of Q-Captisol in healthy human volunteers; format: in vivo
Description: Tacrolimus-quercetin pharmacokinetic interactions are evaluated in N=15 healthy male subjects in an open-label, three-way crossover study of i.v. or oral quercetin-sulfobutylether-7-β-cyclodextrin (Q-Captisol) administered in combination with oral tacrolimus. Q-Captisol stock dosing solutions are prepared in aqueous Captisol (CyDex Inc.) using sodium hydroxide to facilitate dissolution. The final solution is adjusted to a final pH=7.5 to 8.0 using dilute sodium hydroxide or HCl. Stock solutions are aseptically filtered into a sterile IV bag and diluted to final volume with sterile saline. Q-Captisol oral dosing solutions are prepared by transferring the stock solution to a dosing cup and diluting to the final volume with deionized water. Oral tacrolimus is administered using commercially-available Prograf® capsules, with each capsule containing 1 mg tacrolimus and the excipient lactose.
In Period 1, all subjects received only a single dose of oral tacrolimus (1 mg).
In Period 2, all subjects received 3× daily oral doses of Q-Captisol on Days 12, 13, and 14. On Day 14, subjects received a single dose of oral tacrolimus (1 mg)
In Period 3, i.v. infusions of Q-Captisol are administered over 20 min via an indwelling cannula. Tacrolimus (1 mg) is administered orally 60 min after the start of the administration of the i.v. Q-Captisol dose.
The dosing regimen is as follows:
Period 1: Day 1: single oral dose of 1 mg tacrolimus
Period 2: Day 12: three times per day (Q 8 hrs) single oral dose of 100 mg Q-Captisol
Day 13: three times per day (Q 8 hrs) single oral dose of 100 mg Q-Captisol
Day 14: three times per day (Q 8 hrs) single oral dose of 100 mg Q-Captisol, with a single oral dose of 1 mg tacrolimus following the first dose of Q-Captisol.
Period 3: Day 25: single IV infusion of 100 mg Q-Captisol followed by a single oral dose of 1 mg tacrolimus.
In Period 1, blood samples for determination of tacrolimus pharmacokinetics are obtained at 0 min (pre-dose), then at 0.25, 0.5, 1, 2, 4, 8, 12, 24, 48, and 72 hr. Similar time periods are used to obtain tacrolimus blood sampled in Periods 2 and 3. Blood samples (0.4 ml) are withdrawn into K2-EDTA tubes from either an indwelling cannula or via venipuncture, then processed to yield plasma. Plasma samples are transferred to fresh tubes and frozen prior to shipment to the analytical laboratory.
The tacrolimus concentrations in plasma are determined using validated assay methods via an LC/MS/MS analytical technique. Major pharmacokinetic parameters, including area under the concentration versus time curve from time zero to the time of last measurable concentration (AUCt), area under the concentration versus time curve from time zero to infinite time (AUCinf), maximum observed concentration (Cmax), time to reach maximum observed blood or plasma concentration (Tmax), apparent terminal elimination rate constant (Kcl), clearance (CL), and half-life (T1/2), are determined from the plasma concentration data. Samples are analysed from all 15 subjects; one subject is a clear outlier and is excluded from the final analysis (N=14 subjects per dose regimen).

rats = test: Blood glucose levels in rats co-administered tacrolimus and flavonoid-sulfobutylether-7-β-cyclodextrin; format: in vivo, rat
Description: One set of 5 rats is treated from day 1 to day 25 with inert vehicle 2 intraperitoneally and treated from day 11 to day 25 with inert vehicle 1 intraperitoneally. […] A third set 5 of rats is treated from day 1 to day 25 intraperitoneally with tacrolimus (Prograf®) at 0.5 mg/kg, and treated from day 11 to day 25 with sulfobutylether-7-β-cyclodextrin (Q-Captisol) at 100 mg/kg. A fourth set 5 of rats is treated from day 1 to day 25 intraperitoneally with tacrolimus (Prograft®) at 0.5 mg/kg, and treated from day 11 to day 25 with fisetin-sulfobutylether-7-β-cyclodextrin (Fisetin-Captisol) at 85 mg/kg. The blood glucose level in the rats was measured on days 1, 10, 15, 20, and 25.

[3] = in vivo; cited from earlier work
[4] = Sulfobutylether-7-β-cyclodextrin-quercetin aqueous composition: concentration and storage stability; format: physicochemical; settings: quercetin at 10 mg/ml in water with sulfobutylether-7-β-cyclodextrin
Description: The flask is placed in an ice bath. […] Into the flask, 12 ml of 1 N sodium hydroxide is added over about 5 to 10 minutes. […] Into the flask is then added 10.5 ml of hydrochloric acid over 5 to 10 minutes at a slow enough rate to avoid precipitation. During the addition of the sodium hydroxide and the hydrochloric acid, the temperature is maintained at less than 20° C. DI water is then added to give total volume of 100 ml.

[5] = Zheng, et al. J. Pharm. Sci. 94(5), 2005; cited from earlier work
[6] = Fisetin-sulfobutylether-7-β-cyclodextrin solution: concentration and precipitation; format: physicochemical; settings: approximately 1:2.5 molar ratio of fisetin to Captisol; pH 7.8-7.9
Description: Captisol™ (17.9 g) is dissolved in 55 ml of distilled (or deionized) water. Fisetin (anhydrous) (965 mg) is then added to the above solution. The mixture is stirred vigorously followed by sonication if necessary to break up any clumps so that a homogeneous suspension is obtained.
While stirring vigorously, a 1 N NaOH solution (12.0 ml) is added slowly and for the formation of the fisetin-Captisol inclusion complex. The resulting solution will be at about pH 12.5 and may have an orange-brown color. The solution is not kept long at this pH, and is quickly neutralized in the following step.
While stirring, add 1N HCl solution (9 ml) dropwise to attain pH to 7.8-7.9. The final solution may be light-yellow to light orange in color. In some cases, the pH can be brought to below pH 7.8. […] Add water to a final volume of 100 ml.
This solution will contain approximately a 1:2.5 molar ratio of fisetin to Captisol. This procedure is for preparing an approximately 9.47 mg/ml fisetin solution. In some cases, the solution can be further diluted to make a solution for injection or for oral administration, for example, by diluting with either 0.9% saline solution and/or with a solution containing dextrose.

[7] = Q-Captisol Dose 0 mg/kg i.p. 30 min before
[8] = Q-Captisol Dose 25 mg/kg i.p. 30 min before
[9] = Q-Captisol Dose 150 mg/kg i.p. 30 min before
[10] = Q-Captisol Dose 300 mg/kg i.p. 30 min before
[11] = Period 1: single oral dose 1 mg tacrolimus alone
[12] = Period 2: 1 mg oral tacrolimus + Q-Captisol po 100 mg three times per day Days 12-14
[13] = male, plasma, Period 1: single oral dose 1 mg tacrolimus alone
[14] = male, plasma, Period 2: 1 mg oral tacrolimus + Q-Captisol po 100 mg three times per day Days 12-14
[15] = male, plasma, Period 3: 1 mg oral tacrolimus after single IV infusion of 100 mg Q-Captisol
[16] = 5 rats, Prograf 0.5 mg/kg i.p. once daily from Day 1 + Vehicle 1 from Day 11
[17] = rats, Prograf 0.5 mg/kg i.p. + Vehicle 1
[18] = rats, Prograf 0.5 mg/kg i.p. once daily from Day 1 + Vehicle 1 from Day 11

Q: What does the source list for `C=CC[C@@H]1/C=C(\C)C[C@H](C)C[C@H](OC)[C@H]2O[C@@](O)(C(=O)C(=O)N3CCCC[C@H]3C(=O)O[C@H](/C(C)=C/[C@@H]3CC[C@@H](O)[C@H](OC)C3)[C@H](C)[C@@H](O)CC1=O)[C@H](C)C[C@@H]2OC` [tacrolimus]?
A: AUC [1, 7]: 645 ng·h/mL; Cmax [1, 7]: 418 ng/mL; Vd [1, 7]: 18.6 L/kg; clearance [1, 7]: 22.9 mL/min/kg; half-life [1, 7]: 9.4 h; AUC [1, 8]: 635 ng·h/mL; Cmax [1, 8]: 426 ng/mL; Vd [1, 8]: 16 L/kg; clearance [1, 8]: 23.3 mL/min/kg; half-life [1, 8]: 7.9 h; AUC [1, 9]: 980 ng·h/mL; Cmax [1, 9]: 781 ng/mL; Vd [1, 9]: 10.9 L/kg; clearance [1, 9]: 15.5 mL/min/kg; half-life [1, 9]: 8.1 h; AUC [1, 10]: 1240 ng·h/mL; Cmax [1, 10]: 877 ng/mL; Vd [1, 10]: 8.2 L/kg; clearance [1, 10]: 12.2 mL/min/kg; half-life [1, 10]: 7.7 h; Tmax [1, 9]: 4.98 min; CL [2, 11]: 4.75 mL/min/kg; Vd [2, 11]: 8.5 L/kg; CL [2, 12]: 3.53 mL/min/kg; Vd [2, 12]: 8.4 L/kg; AUC [2, 13]: 48.8 ng·h/mL; Cmax [2, 13]: 5.8 ng/mL; Tmax [2, 13]: 1.56 h; half-life [2, 13]: 20.8 h; AUC [2, 14]: 65.7 ng·h/mL; Cmax [2, 14]: 6.5 ng/mL; Tmax [2, 14]: 1.28 h; half-life [2, 14]: 27.7 h; AUC [2, 15]: 56.3 ng·h/mL; Cmax [2, 15]: 6.4 ng/mL; Tmax [2, 15]: 1.55 h; clearance [2, 15]: 4.08 mL/min/kg; half-life [2, 15]: 19.9 h; Vd ([2]; male, plasma, Period 3: 1 mg oral tacrolimus after single IV infusion of 100 mg Q-Captisol, read-out: Vd): 7.1 L/kg; Blood glucose Day 1, Mean (rats; [16]): 1.27 g/L; Blood glucose Day 10, Mean (rats; [16]): 1.49 g/L; Blood glucose Day 15, Mean (rats; [16]): 2.54 g/L; Blood glucose Day 20, Mean (rats; [16]): 2.93 g/L; Blood glucose Day 25, Mean (rats; [16]): 2.55 g/L; Blood glucose, Mean change from Day 1, Day 10 (rats; [17]): +0.22 g/l; Blood glucose, Mean change from Day 1, Day 15 (rats; [17]): +1.27 g/l; Blood glucose, Mean change from Day 1, Day 20 (rats; [17]): +1.66 g/l; Blood glucose, Mean change from Day 1, Day 25 (rats; [17]): +1.28 g/l; Blood glucose, Mean change from all vehicle control, Day 1 (rats; [17]): -0.10 g/L; Blood glucose, Mean change from all vehicle control, Day 10 (rats; [17]): +0.23 g/l; Blood glucose, Mean change from all vehicle control, Day 15 (rats; [17]): +1.27 g/l; Blood glucose, Mean change from all vehicle control, Day 20 (rats; [17]): +1.81 g/l; Blood glucose, Mean change from all vehicle control, Day 25 (rats; [17]): +1.38 g/l; Blood glucose Day 1, individual rats (rats; [18]): 1.16 g/l (2×) and 1.34 g/l and 1.22 g/l and 1.47 g/l; Blood glucose Day 10, individual rats (rats; [18]): 1.30 g/L and 1.39 g/L and 1.40 g/L and 1.09 g/L and 2.25 g/L; Blood glucose Day 15, individual rats (rats; [18]): 3.72 g/L and 1.67 g/L and 2.31 g/L and 1.97 g/L and 3.02 g/L; Blood glucose Day 20, individual rats (rats; [18]): 2.79 g/L and 3.70 g/L and 2.97 g/L and 2.41 g/L and 2.77 g/L; Blood glucose Day 25, individual rats (rats; [18]): 0.97 g/L and 3.16 g/L and 1.69 g/L and 2.98 g/L and 3.96 g/L

Q: With `O=c1c(O)c(-c2ccc(O)c(O)c2)oc2cc(O)cc(O)c12` [quercetin] as the compound, how does the serum half-life [3] read?
A: Its serum half-life is 19 to 25 h.

Q: And the stability without precipitation [4]?
A: The stability without precipitation was “stable for more than two weeks without precipitation”.

Q: What about the “stability in aqueous solution as a function of pH” value [5] of the same compound?
A: Its value is “stable below pH 3; also recorded: degradation of quercetin above pH 5 became apparent”.

Q: For `O=c1c(O)c(-c2ccc(O)c(O)c2)oc2cc(O)ccc12` [fisetin], which “fisetin concentration of the solution” value [6] is on record?
A: Its value is “approximately 9.47 mg/ml”.
